Laboratory results: paper PMC10924921, “Mi-2β promotes immune evasion in melanoma by activating EZH2 methylation” (Nature Communications, 2024)

Assays:
Test in all cases: biochemical
Parameters in all cases: KINOMEscan active-site competition binding panel (468 kinase assays), per cent of control at 1000 nM
Conditions in all cases: KINOMEscan per cent of control (binding competition); read-out: Percent Control
TRPM6 = TRPM6 (Homo sapiens, UniProt Q9BX84)
Description: (§1) Figure S7 / Percent Control

[1] = target: T1, ABL1(F317I)-phosphorylated (Homo sapiens, UniProt P00519, F317I)
T1 construct: phosphorylated
Description: as §1

PRKD3 = PRKD3 (Homo sapiens, UniProt O94806)
Description: as §1

CSNK1E = CSNK1E (Homo sapiens, UniProt P49674)
Description: as §1

NEK2 = NEK2 (Homo sapiens, UniProt P51955)
Description: as §1

FLT3(D835V) = FLT3(D835V) (Homo sapiens, UniProt P36888, D835V)
Description: as §1

DDR2 = DDR2 (Homo sapiens, UniProt Q16832)
Description: as §1

LTK = LTK (Homo sapiens, UniProt P29376)
Description: as §1

PLK1 = PLK1 (Homo sapiens, UniProt P53350)
Description: as §1

PIP5K1A = PIP5K1A (Homo sapiens, UniProt Q99755)
Description: as §1

YANK2 = target: T2, YANK2 (Homo sapiens, UniProt Q9NY57)
T2 construct: gene STK32B
Description: as §1

p38-alpha = target: T3, p38-alpha (Homo sapiens, UniProt Q16539)
T3 construct: gene MAPK14
Description: as §1

PCTK3 = target: T4, PCTK3 (Homo sapiens, UniProt Q07002)
T4 construct: gene CDK18
Description: as §1

TAOK3 = TAOK3 (Homo sapiens, UniProt Q9H2K8)
Description: as §1

CAMK1 = CAMK1 (Homo sapiens, UniProt Q14012)
Description: as §1

CSK = CSK (Homo sapiens, UniProt P41240)
Description: as §1

CLK3 = CLK3 (Homo sapiens, UniProt P49761)
Description: as §1

CSNK2A1 = CSNK2A1 (Homo sapiens, UniProt P68400)
Description: as §1

PDGFRA = PDGFRA (Homo sapiens, UniProt P16234)
Description: as §1

CDKL5 = CDKL5 (Homo sapiens, UniProt O76039)
Description: as §1

LATS2 = LATS2 (Homo sapiens, UniProt Q9NRM7)
Description: as §1

SRPK1 = SRPK1 (Homo sapiens, UniProt Q96SB4)
Description: as §1

PFTK1 = target: T5, PFTK1 (Homo sapiens, UniProt O94921)
T5 construct: gene CDK14
Description: as §1

ERBB3 = ERBB3 (Homo sapiens, UniProt P21860)
Description: as §1

PCTK2 = target: T6, PCTK2 (Homo sapiens, UniProt Q00537)
T6 construct: gene CDK17
Description: as §1

T5 sequence (O94921 whole entry): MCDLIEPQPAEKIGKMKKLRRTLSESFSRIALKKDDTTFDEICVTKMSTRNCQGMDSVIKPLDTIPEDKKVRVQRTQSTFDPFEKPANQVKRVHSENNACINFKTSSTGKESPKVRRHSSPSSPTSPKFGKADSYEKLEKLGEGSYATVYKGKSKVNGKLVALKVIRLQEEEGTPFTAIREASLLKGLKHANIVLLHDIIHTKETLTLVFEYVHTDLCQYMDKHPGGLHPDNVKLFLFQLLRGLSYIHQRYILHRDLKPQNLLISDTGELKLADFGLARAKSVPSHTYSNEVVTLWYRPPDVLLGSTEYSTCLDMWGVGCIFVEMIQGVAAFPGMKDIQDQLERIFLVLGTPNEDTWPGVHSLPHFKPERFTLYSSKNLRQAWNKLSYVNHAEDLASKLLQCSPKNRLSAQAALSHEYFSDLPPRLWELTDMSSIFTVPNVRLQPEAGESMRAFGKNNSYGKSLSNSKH
T6 sequence (Q00537 whole entry): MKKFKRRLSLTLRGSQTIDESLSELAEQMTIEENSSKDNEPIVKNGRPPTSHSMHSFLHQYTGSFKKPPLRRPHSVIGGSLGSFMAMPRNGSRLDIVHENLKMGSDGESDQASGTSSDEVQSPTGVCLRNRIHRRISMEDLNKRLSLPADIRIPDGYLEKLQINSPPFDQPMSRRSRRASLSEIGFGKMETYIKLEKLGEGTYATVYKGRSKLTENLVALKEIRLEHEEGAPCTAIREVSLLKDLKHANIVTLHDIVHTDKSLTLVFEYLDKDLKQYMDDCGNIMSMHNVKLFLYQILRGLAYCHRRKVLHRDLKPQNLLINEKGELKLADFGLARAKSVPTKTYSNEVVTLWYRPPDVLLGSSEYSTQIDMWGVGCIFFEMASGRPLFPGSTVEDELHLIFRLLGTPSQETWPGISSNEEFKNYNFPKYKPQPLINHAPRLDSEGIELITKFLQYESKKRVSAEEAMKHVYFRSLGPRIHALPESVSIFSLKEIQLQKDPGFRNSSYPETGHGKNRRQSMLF
Sequence of SRPK1 (Q96SB4 whole entry): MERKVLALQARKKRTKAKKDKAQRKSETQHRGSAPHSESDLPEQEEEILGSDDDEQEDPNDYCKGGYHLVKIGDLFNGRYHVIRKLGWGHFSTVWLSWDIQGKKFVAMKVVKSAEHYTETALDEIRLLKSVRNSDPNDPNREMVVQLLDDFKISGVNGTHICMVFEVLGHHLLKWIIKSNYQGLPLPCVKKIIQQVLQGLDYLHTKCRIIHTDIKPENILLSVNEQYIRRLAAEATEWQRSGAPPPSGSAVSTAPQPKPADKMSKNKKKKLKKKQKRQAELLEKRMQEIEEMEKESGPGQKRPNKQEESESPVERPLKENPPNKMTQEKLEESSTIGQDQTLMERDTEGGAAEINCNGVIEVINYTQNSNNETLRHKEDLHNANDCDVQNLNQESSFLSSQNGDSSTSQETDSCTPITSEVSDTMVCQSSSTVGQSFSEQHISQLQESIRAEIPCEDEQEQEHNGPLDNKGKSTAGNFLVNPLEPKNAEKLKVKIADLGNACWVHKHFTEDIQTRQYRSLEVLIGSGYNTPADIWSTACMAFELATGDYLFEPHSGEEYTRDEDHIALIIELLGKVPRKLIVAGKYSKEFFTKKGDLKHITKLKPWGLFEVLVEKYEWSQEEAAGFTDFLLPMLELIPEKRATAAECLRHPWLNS
Sequence of CSNK2A1 (P68400 whole entry): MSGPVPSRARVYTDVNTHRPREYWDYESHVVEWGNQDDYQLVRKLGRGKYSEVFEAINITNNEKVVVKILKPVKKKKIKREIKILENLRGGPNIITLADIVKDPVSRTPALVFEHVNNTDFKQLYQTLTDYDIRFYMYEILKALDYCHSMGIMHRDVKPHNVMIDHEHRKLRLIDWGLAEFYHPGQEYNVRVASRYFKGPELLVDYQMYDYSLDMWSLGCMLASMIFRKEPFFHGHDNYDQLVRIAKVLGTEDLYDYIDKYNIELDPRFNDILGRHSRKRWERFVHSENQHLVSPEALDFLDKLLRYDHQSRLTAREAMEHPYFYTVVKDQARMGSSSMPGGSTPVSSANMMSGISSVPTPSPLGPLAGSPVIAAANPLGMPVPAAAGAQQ
Sequence of PRKD3 (O94806 whole entry): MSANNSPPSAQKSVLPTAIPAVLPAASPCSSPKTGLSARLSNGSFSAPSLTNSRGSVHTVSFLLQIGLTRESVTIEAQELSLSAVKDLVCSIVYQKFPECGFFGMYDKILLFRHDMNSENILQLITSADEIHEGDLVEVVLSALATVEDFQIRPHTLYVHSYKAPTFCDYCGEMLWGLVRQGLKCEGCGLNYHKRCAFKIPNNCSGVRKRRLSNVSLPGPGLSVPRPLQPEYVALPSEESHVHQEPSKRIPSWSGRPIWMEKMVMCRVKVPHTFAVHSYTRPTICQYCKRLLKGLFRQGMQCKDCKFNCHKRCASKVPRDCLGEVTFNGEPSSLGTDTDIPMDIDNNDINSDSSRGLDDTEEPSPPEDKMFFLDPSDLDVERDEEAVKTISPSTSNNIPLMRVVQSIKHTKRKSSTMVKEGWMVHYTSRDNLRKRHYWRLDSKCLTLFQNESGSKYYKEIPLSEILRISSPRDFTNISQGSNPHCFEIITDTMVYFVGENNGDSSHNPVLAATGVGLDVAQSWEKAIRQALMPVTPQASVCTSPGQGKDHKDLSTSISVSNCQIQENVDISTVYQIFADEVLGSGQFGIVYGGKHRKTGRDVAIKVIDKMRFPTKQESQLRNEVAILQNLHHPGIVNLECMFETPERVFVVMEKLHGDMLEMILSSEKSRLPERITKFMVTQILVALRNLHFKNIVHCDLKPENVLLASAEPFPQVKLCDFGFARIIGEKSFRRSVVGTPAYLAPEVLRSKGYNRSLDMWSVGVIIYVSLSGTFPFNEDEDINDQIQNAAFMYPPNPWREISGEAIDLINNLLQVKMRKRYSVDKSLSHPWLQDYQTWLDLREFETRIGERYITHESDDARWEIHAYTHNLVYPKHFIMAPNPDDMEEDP
T3 sequence (Q16539 whole entry): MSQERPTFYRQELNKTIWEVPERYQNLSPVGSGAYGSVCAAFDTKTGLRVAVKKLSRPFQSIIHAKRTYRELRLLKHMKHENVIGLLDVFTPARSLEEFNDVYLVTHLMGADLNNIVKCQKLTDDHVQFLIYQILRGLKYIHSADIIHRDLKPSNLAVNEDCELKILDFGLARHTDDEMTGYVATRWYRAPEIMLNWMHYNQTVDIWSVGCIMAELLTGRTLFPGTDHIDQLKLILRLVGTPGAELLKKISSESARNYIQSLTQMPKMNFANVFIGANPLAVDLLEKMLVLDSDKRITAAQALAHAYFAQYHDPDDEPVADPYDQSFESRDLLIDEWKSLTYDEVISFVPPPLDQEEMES
Sequence of PDGFRA (P16234 whole entry): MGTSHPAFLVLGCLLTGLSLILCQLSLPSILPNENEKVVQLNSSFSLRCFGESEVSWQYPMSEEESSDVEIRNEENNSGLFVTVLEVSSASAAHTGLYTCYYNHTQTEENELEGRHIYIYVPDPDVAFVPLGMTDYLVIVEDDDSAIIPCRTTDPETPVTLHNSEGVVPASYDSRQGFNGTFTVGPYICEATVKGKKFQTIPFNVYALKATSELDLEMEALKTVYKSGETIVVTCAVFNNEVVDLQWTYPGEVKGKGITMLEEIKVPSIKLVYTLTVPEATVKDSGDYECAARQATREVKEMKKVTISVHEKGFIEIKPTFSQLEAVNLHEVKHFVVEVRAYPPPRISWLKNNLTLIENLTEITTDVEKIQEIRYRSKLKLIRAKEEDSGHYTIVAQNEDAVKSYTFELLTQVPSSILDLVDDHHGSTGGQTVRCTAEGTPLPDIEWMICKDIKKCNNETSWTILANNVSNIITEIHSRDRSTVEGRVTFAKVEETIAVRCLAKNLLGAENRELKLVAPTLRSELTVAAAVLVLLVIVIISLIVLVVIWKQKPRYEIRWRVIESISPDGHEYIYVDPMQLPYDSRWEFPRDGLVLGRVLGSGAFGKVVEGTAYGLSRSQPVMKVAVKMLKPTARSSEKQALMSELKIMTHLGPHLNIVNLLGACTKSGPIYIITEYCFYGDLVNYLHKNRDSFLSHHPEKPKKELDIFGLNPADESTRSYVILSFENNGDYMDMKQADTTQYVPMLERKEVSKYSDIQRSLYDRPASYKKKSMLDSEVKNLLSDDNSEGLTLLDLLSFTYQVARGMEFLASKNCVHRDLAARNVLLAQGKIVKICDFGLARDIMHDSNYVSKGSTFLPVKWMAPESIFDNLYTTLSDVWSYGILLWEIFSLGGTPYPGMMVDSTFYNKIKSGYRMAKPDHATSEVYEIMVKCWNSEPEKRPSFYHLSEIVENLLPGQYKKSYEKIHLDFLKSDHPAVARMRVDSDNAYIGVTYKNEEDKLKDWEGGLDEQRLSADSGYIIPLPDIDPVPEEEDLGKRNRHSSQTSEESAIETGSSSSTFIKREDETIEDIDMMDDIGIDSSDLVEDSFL
Sequence of NEK2 (P51955 whole entry): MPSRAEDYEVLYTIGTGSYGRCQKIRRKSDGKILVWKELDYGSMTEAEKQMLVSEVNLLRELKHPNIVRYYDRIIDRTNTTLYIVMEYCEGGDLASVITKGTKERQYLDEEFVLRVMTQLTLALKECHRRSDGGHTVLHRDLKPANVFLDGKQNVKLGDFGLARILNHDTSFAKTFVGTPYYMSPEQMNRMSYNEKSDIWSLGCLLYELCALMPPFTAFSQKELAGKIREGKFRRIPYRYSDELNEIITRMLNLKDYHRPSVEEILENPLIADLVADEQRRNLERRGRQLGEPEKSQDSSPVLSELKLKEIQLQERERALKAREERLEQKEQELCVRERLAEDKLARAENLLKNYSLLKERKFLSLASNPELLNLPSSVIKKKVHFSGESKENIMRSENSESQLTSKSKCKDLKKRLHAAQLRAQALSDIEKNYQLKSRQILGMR

Cn1c(=O)[nH]c2ccc(-c3cccc(C(=O)NC4CCn5ccnc5C4)c3)cc21 (stereo not shown) [Z36-MP5]
remaining binding at 1 µM (TRPM6): 90%
remaining binding at 1 µM [1]: 90%
remaining binding at 1 µM (PRKD3): 91%
remaining binding at 1 µM (CSNK1E): 49%
remaining binding at 1 µM (NEK2): 100%
remaining binding at 1 µM (FLT3(D835V)): 55%
remaining binding at 1 µM (DDR2): 66%
remaining binding at 1 µM (LTK): 82%
remaining binding at 1 µM (PLK1): 70%
remaining binding at 1 µM (PIP5K1A): 57%
remaining binding at 1 µM (YANK2): 56%
remaining binding at 1 µM (p38-alpha): 63%
remaining binding at 1 µM (PCTK3): 86%
remaining binding at 1 µM (TAOK3): 54%
remaining binding at 1 µM (CAMK1): 91%
remaining binding at 1 µM (CSK): 98%
remaining binding at 1 µM (CLK3): 91%
remaining binding at 1 µM (CSNK2A1): 61%
remaining binding at 1 µM (PDGFRA): 75%
remaining binding at 1 µM (CDKL5): 39%
remaining binding at 1 µM (LATS2): 95%
remaining binding at 1 µM (SRPK1): 55%
remaining binding at 1 µM (PFTK1): 98%
remaining binding at 1 µM (ERBB3): 100%
remaining binding at 1 µM (PCTK2): 94%
